Like-named read-outs stand apart in the source and are kept apart here.
Columns and labels:
C. albicans ATCC 24433 = assay: Antifungal MIC assay; settings: Candida albicans, ATCC24433
S. aureus ATCC25923 = assay: MIC assay, serial dilution; settings: Staphylococcus aureus
E. coli ATCC25922 = assay: MIC assay, serial dilution; settings: Escherichia coli
A. baumannii ATCC19606 = assay: MIC assay, serial dilution; settings: Acinetobacter baumannii
Hennes-20 cells = assay: Hennes-20 oncology screen; format: cell-based; settings: 72 h, alamar Blue
Protocol: To screen compounds for oncology activity Hennes-20 cells were plated at low (500 cells/well) versus high (15,000 cells/well) densities and treated with DMSO (vehicle) or dose-titration of compounds. The rationale for this screen is that an intrinsically toxic compound should kill cells regardless of density, including in Hennes-20 cells. However, a compound that selectively triggers the arrest of proliferation will inhibit cell growth when plated at a low density will appear cytotoxic due to inhibition of cell growth when plated at a low density but will appear non-toxic to cells plated at a high density where the cells are approaching confluence and the readout detected by a cell viability assay is already close to the maximum.
To conduct the Hennes-20 screen, two 96 well plates were seeded with Hennes 20 cells in parallel where one was plated at a density of 500 cells/well and the other was plated at a density of 15,000 cells/well. 90 uL of minimum essential media was added to each well and plates were placed in a 37 degrees Celsius incubator for 24 hours. The next day, 10 ul of media containing dilutions of compound in DMSO were added to each plate. Six wells on each plate received 10 ul of media containing only DMSO. Each well was gently mixed 5 times with a 100 ul pipette. Plates were incubated at 37 degrees Celsius for 72 hours and then 10 uL of alamar Blue was added to each well. Wells were mixed 5 times then incubated at 37 degrees Celsius for […]. Plates were then read at 530/590.
The rationale for the screen is as follows: Hennes-20 cells lack endogenous apoptosis. Cells plated at low density will proliferate and approach confluence in 72 hrs. A drug that arrests proliferation may have its proliferation blocking effect masked by the triggering of endogenous apoptosis. However, in the Hennes line, lacking endogenous apoptosis, such an arrest is manifest as a dose-dependent maintenance at low cell density. Since the high-density cells are plated close to confluence, the difference between Alamar Blue cell survival readings after 72 hrs reflects the ability of the drug to block proliferation in the low density-plated cells. In the high density-plated cells any diminution of Alamar Blue readout vs vehicle control is due to intrinsic toxicity, not proliferation arrest, since cells were already at confluence. Thus, a compound that appears toxic (low Alamar Blue readings after 72 hrs) on the low-density plate, but which appears non-toxic (high Alamar Blue readings after 72 hrs) on the high-density plate, must be arresting proliferation, since intrinsic compound toxicity should be observed at both low and high cell densities, not selectively on the low-density plate.

[1] = ATCC25922, read-out: Anti-bacterial Activity (E. coli MIC (uM)), E. coli, Table 5

Structure (SMILES) | MIC (C. albicans ATCC 24433) | MIC (S. aureus ATCC25923) | MIC (E. coli ATCC25922; ATCC25922, E. coli ATCC25922) | MIC (A. baumannii ATCC19606) | EC50 (Hennes-20 cells) | MIC (E. coli ATCC25922; [1])
CC1(C)C2CN(c3ccc4nc5ccc(N6CC7C(C6C(=O)O)C7(C)C)cc5[s+]c4c3)C(C(=O)O)C21 (stereo not drawn) [Compound 127] | > 100 µM | > 100 µg/mL | > 100 µg/mL | > 100 µg/mL |  | 
c1cc2nc3c(N4CCOCC4)cc(N4CCCC4)cc3[s+]c2cc1N1CCCC1 [Compound 123] | 3.1 µM | 6.25 µg/mL | > 100 µg/mL | 100 µg/mL |  | 
c1cc2nc3c(N4CCCC4)cc(N4CCCC4)cc3[s+]c2cc1N1C2CCCC1CC2 [Compound 145] | 1.6 µM | 1.6 µg/mL | 25 µg/mL | 6.25 µg/mL |  | 
CC(C)(C)OC(=O)N1CCCN(c2ccc3nc4ccc(N5CCCN(C(=O)OC(C)(C)C)CC5)cc4[s+]c3c2)CC1 [Compound 140] | > 100 µM | > 100 µg/mL | > 100 µg/mL | > 100 µg/mL |  | 
c1ccc2c(c1)Sc1ccccc1N2c1ccc2nc3ccc(N4C5CCCC4CC5)cc3[s+]c2c1 [Compound 148] | 100 µM | 25 µg/mL | > 100 µg/mL | 100 µg/mL |  | 
COC(=O)C1C2C(CN1c1ccc3nc4ccc(N5CC6C(C5C(=O)OC)C6(C)C)cc4[s+]c3c1)C2(C)C (stereo not drawn) [Compound 129] | > 100 µM | 12.5 µg/mL | > 100 µg/mL | > 100 µg/mL |  | 
CC1(C)C2CN(c3ccc4nc5c(N6CC7C(C6)C7(C)C)cc(N6CCCC6)cc5[s+]c4c3)CC21 (stereo not drawn) [Compound 124] | 1.6 µM | 6.25 µg/mL | 100 µg/mL | 12.5 µg/mL |  | 
C1=CCN(c2ccc3nc4ccc(N5CC=CC5)cc4[s+]c3c2)C1 [Compound 136] | > 100 µM | 25 µg/mL | > 100 µg/mL | > 100 µg/mL |  | 
c1cc2nc3c(N4CCCNCC4)cc(N4CCCC4)cc3[s+]c2cc1N1CCCC1 [Compound 119] | 6.25 µM | 25 µg/mL | 100 µg/mL | > 100 µg/mL | 12500 nM | 
c1cc2nc3ccc(N4CCCOCC4)cc3[s+]c2cc1N1CCCOCC1 [Compound 141] | > 100 µM | 100 µg/mL | > 100 µg/mL | > 100 µg/mL |  | 
c1cc2nc3ccc(N4CCCNCC4)cc3[s+]c2cc1N1CCCNCC1 [Compound 139] | > 100 µM | > 100 µg/mL | > 100 µg/mL | > 100 µg/mL |  | 
CC(C)(C)c1cc(N2CC3C(C2)C3(C)C)cc2[s+]c3cc(N4CC5C(C4)C5(C)C)cc(N4CC5C(C4)C5(C)C)c3nc12 (stereo not drawn) [Compound 126] | 12.5 µM | 100 µg/mL | > 100 µg/mL | > 100 µg/mL | 500 nM | 
CC(C)(C)c1cc(N2CCCC2)cc2[s+]c3cc(N4CCCC4)cc(N4CCCC4)c3nc12 [Compound 130] | 6.25 µM | 6.25 µg/mL | 12.5 µg/mL | 6.25 µg/mL |  | 
c1cc2nc3ccc(N4CCNC4)cc3[s+]c2cc1N1CCNC1 [Compound 137] | > 100 µM | > 100 µg/mL | > 100 µg/mL | > 100 µg/mL |  | 
c1cc2nc3ccc(N4CCSCC4)cc3[s+]c2cc1N1CCSCC1 [Compound 143] | > 100 µM |  |  |  |  | 
c1cc2nc3c(N4CCSC4)cc(N4CCCC4)cc3[s+]c2cc1N1CCCC1 [Compound 118] | 3.1 µM | 6.25 µg/mL | > 100 µg/mL | > 100 µg/mL | 12500 nM | 
CC1(C)C2CN(c3ccc4nc5ccc(N6CCCC6)cc5[s+]c4c3)CC21 (stereo not drawn) [Compound 150] | 1.6 µM | 1.6 µg/mL | 100 µg/mL | 25 µg/mL |  | 
CC(C)(C)OC(=O)NC1C2CN(c3cc(N4CCCC4)cc4[s+]c5cc(N6CCCC6)ccc5nc34)CC21 (stereo not drawn) [Compound 111] | 1.6 µM |  |  |  |  | 

Structure (SMILES) | MIC (C. albicans ATCC 24433) | MIC (S. aureus ATCC25923) | MIC (E. coli ATCC25922; ATCC25922, E. coli ATCC25922) | MIC (A. baumannii ATCC19606) | EC50 (Hennes-20 cells) | MIC (E. coli ATCC25922; [1])
c1cc2nc3ccc(N4C5CCCC4CC5)cc3[s+]c2cc1N1C2CCCC1CC2 [Compound 146] | 6.25 µM | 3.1 µg/mL | > 100 µg/mL | 25 µg/mL |  | 
COC(=O)C1C2C(CN1c1cc(N3CCCC3)cc3[s+]c4cc(N5CCCC5)ccc4nc13)C2(C)C (stereo not drawn) [Compound 116] |  | 1.6 µg/mL | 12.5 µg/mL | 6.25 µg/mL |  | 
CC(C)(C)c1cc([N+]2([O-])CCCC2)cc2[s+]c3cc(N4CCCC4)ccc3nc12 [Compound 133] | 100 µM | 12.5 µg/mL | > 100 µg/mL | 100 µg/mL |  | 
c1cc2nc3c(N4CCCC4)cc(N4CCCC4)cc3[s+]c2cc1N1CCCC1 [Compound 20] |  |  |  |  | 500 nM | 0.8 µM
CC1(C)C2CN(c3ccc4nc5cc(Cl)c(N6CC7C(C6)C7(C)C)cc5[s+]c4c3)CC21 (stereo not drawn) [Compound 9] |  |  |  |  | 500 nM | 12.5 µM
CC(C)(C)c1cc(N2CCCC2)cc2[s+]c3cc(N4CCCC4)ccc3nc12 [Compound 65] |  |  |  |  | < 500 nM | 3.1 µM
CC1(C)C2CN(c3cc(F)c4nc5c(F)cc(N6CC7C(C6)C7(C)C)cc5[s+]c4c3)CC21 (stereo not drawn) [Compound 13] |  |  |  |  | 2500 nM | 12.5 µM
CCc1cc(N2CC3C(C2)C3(C)C)cc2[s+]c3cc(N4CC5C(C4)C5(C)C)cc(CC)c3nc12 (stereo not drawn) [Compound 10] |  |  |  |  | < 500 nM | 6.25 µM
CC(C)c1cc(N2CCCC2)cc2[s+]c3cc(N4CCCC4)ccc3nc12 [Compound 41] |  |  |  |  | < 500 nM | 1.6 µM
CC1(C)C2CN(c3ccc4nc5ccc(N6C7CCCC6CC7)cc5[s+]c4c3)CC21 (stereo not drawn) [Compound 147] | 3.1 µM | 1.6 µg/mL | 100 µg/mL | 25 µg/mL |  | 
c1cc2nc3ccc(N4CCC4)cc3[s+]c2cc1N1CCC1 [Compound 29] |  |  |  |  | < 2500 nM | 25 µM
CC(C)(C)OC(=O)NCc1cc2nc3ccc(N4CC5C(C4)C5(C)C)cc3[s+]c2cc1N1CC2C(C1)C2(C)C (stereo not drawn) [Compound 8] |  |  |  |  | < 2500 nM | 6.3 µM
CC1(C)C2CN(c3ccc4nc5c(Cl)cc(N6CC7C(C6)C7(C)C)cc5[s+]c4c3)CC21 (stereo not drawn) [Compound 15] |  |  |  |  | 2500 nM | 12.5 µM
CCc1cc(N2CCCC2)cc2[s+]c3cc(N4CCOCC4)cc(CC)c3nc12 [Compound 72] |  |  |  |  | < 12500 nM | 25 µM
FC1(F)CCN(c2ccc3nc4ccc(N5CCC(F)(F)C5)cc4[s+]c3c2)C1 [Compound 53] |  |  |  |  | > 12500 nM | 12.5 µM
Clc1cc(N2CCCC2)cc2[s+]c3cc(N4CCCC4)cc(Cl)c3nc12 [Compound 42] |  |  |  |  | < 12500 nM | 1.6 µM
CC(C)(C)OC(=O)NCc1cc2nc3ccc(N4CCCC4)cc3[s+]c2cc1N1CCCC1 [Compound 24] |  |  |  |  | < 2500 nM | 1.6 µM
CC(C)(C)c1cc(N2CCCC2)cc2[s+]c3cc(N4CCCC4)cc(Br)c3nc12 [Compound 132] | 12.5 µM | 6.25 µg/mL | 100 µg/mL | 12.5 µg/mL |  | 
